The results in this text go back to the Kinase Knowledgebase extract (Sharma et al. 2016).

≈ marks a conversion by molar mass, not a printed value.

The assay addresses CDK2 (human) (UniProt P24941). In words: Enzyme Assay.

Regarding `CC(C)(C)c1cc2c(NN=Cc3nc4c(s3)CNC4)ncnc2s1`, the half-inhibitory concentration (IC50) was found to be 0.2 mg/L (≈ 0.558 µM). Turning to `CC(N)c1csc(C=NNc2ncnc3sc(C(C)(C)CF)cc23)n1` (stereo not given), the concentration for half-maximal inhibition (IC50) worked out at 0.68 mg/L (≈ 1.8 µM). This IC50 lies about 3.4-fold higher than the previous one. In turn, `CNCc1csc(C=NNc2ncnc3sc(C4CCC4)cc23)n1` showed an IC50 of 1.4 mg/L (≈ 3.91 µM). `CNCc1csc(C=NNc2ncnc3sc(C(C)C)cc23)n1` came in with a 50% inhibitory concentration (IC50) of 1.5 mg/L (≈ 4.33 µM). The compound `CC(C)(C)c1cc2c(NN=Cc3nc(CN)cs3)ncnc2s1` returned an IC50 of 0.38 mg/L (≈ 1.1 µM). For `CNCc1csc(C=NNc2ncnc3sc(C(C)(C)C)cc23)n1` the value was 0.98 mg/L (≈ 2.72 µM); for `CC(C)(C)c1cc2c(NN=Cc3nc(C4CCNCC4)cs3)ncnc2s1`, 1.7 mg/L (≈ 4.24 µM); for `CNCc1csc(C=NNc2ncnc3sc(C4CCCCC4)cc23)n1`, 0.81 mg/L (≈ 2.1 µM). For `CC(C)(C)c1cc2c(NN=Cc3nccs3)ncnc2s1` the value was 0.2 mg/L (≈ 0.63 µM); for `CCCC(C)c1cc2c(NN=Cc3nc(CNC)cs3)ncnc2s1` (stereo not given), 1.4 mg/L (≈ 3.74 µM); for `CNCc1csc(C=NNc2ncnc3sc(C4CC4)cc23)n1`, greater than 2 mg/L.

The compound `CNCc1csc(C=NNc2ncnc3sc(C(C)(C)CF)cc23)n1` gave an IC50 of 1.8 mg/L (≈ 4.76 µM). For `CC(N)c1csc(C=NNc2ncnc3sc(C(C)(C)C)cc23)n1` (stereo not given) the value was 0.83 mg/L (≈ 2.3 µM).

As for `CNCc1csc(C=NNc2ncnc3sc(C(C)C(C)C)cc23)n1` (stereo not given), the IC50 amounted to 0.88 mg/L (≈ 2.35 µM). The IC50 values of the last two compounds are within 1.5-fold of each other. `CC(C)(C)c1cc2c(NN=Cc3nc(C4CCNC4)cs3)ncnc2s1` (stereo not given): the IC50 stood at 1.8 mg/L (≈ 4.66 µM). The value for `CCC(N)c1csc(C=NNc2ncnc3sc(C(C)(C)C)cc23)n1` (stereo not given) was 1.4 mg/L (≈ 3.74 µM). Regarding `CCC(C)c1cc2c(NN=Cc3nc(CNC)cs3)ncnc2s1` (stereo not given), the IC50 came to 0.44 mg/L (≈ 1.22 µM).

`CC(C)(C)c1cc2c(NN=Cc3cncs3)ncnc2s1` had an IC50 of 0.059 mg/L (≈ 0.186 µM). This IC50 is about 7.5-fold lower than that of the compound before. For the compound `CNCc1cnc(C=NNc2ncnc3sc(C(C)(C)C)cc23)s1`, the IC50 came out at 0.35 mg/L (≈ 0.971 µM). This IC50 is about 5.9-fold higher than that of the compound before. The compound `CC(C)(C)c1cc2c(NN=Cc3cscn3)ncnc2s1` gave an IC50 of 2.2 mg/L (≈ 6.93 µM). Compound `CNCc1ccc(C=NNc2ncnc3sc(C(C)(C)C)cc23)cc1` displayed an IC50 of 0.68 mg/L (≈ 1.92 µM). Against the preceding compound, the IC50 is about 3.2-fold lower. The compound `CNCc1csc(C=NNc2ncnc3sc(C(C)(C)CO)cc23)n1` had a 50% inhibitory concentration (IC50) of 1.8 mg/L (≈ 4.78 µM). Compared with the last compound, the IC50 is about 2.6-fold higher. In turn, `CC(C)(C)c1cc2c(NN=Cc3nc(C4CNC4)cs3)ncnc2s1` yielded an IC50 of 1 mg/L (≈ 2.68 µM).

With `CNC(C)c1csc(C=NNc2ncnc3sc(C(C)(C)C)cc23)n1` (stereo not given), the IC50 came to 1.1 mg/L (≈ 2.94 µM).

The compound `CN(C)Cc1csc(C=NNc2ncnc3sc(C(C)(C)C)cc23)n1` returned a 50% inhibitory concentration (IC50) of 1.4 mg/L (≈ 3.74 µM). This IC50 and that of the compound before are within 1.5-fold of each other.
